The results in this text go back to patent US20200289482A1, “CYSTIC FIBROSIS TRANSMEMBRANE CONDUCTANCE REGULATOR MODULATORS FOR TREATING AUTOSOMAL DOMINANT POLYCYSTIC KIDNEY DISEASE” (The Johns Hopkins University, priority 2017, published 2020).

The test system of assay [1] is Hsp70. Description: Western blot of Hsp70 in kidney tissue lysates. It is filed as in vivo, mouse. Conditions: cyst induced pkd−/− mice, VX-809 30 mg/kg BW. As for the experimental part:
FIG. 7A, FIG. 7B, FIG. 7C, FIG. 7D, FIG. 7E, and FIG. 7F show chaperone expression is altered in mice by VX-809. (FIG. 7A-FIG. 7B) Representative Western blot images of HSP27, 70, 90 and HSP40 in lysates of kidney tissue from no cyst induced (ND), cyst induced with Doxycycline (D) or cyst induced pkd−/− mice treated with VX-809 (D+VX-809) 30 mg/kg BW. (FIG. 7C, FIG. 7D, FIG. 7E, and FIG. 7F) Columns represent averages±standard errors of HSP27, 70, 90 and HSP40 expression. Data were analyzed by non-parametric t-test. n=4 for each treated and control groups. Black lines between lanes represent representative experiments from the same gel. *P<0.05; **P<0.01; To facilitate their growth in the kidney, cysts have developed an altered network of proteins that most likely serves to protect them from stress (34). Next, it was determined whether VX-809 would alter the levels of Hsps in pkd−/− mice and in PN cells. […] Hsp 27, 70 and 90 are all elevated in cystic kidneys compared to normal controls. […] There is no change in Hsp 40. […] Both sets of data are consistent with an alteration in the heat shock response to cyst growth.
(In western blotting, separated proteins are transferred to a membrane and probed.)

Assay [2] has as its system Hsp90. Briefly: Cycloheximide chase, disappearance of Hsp90 in PN cells. It counts as cell-based, mouse. The following applies: VX-809 10 μM with cycloheximide 25 μM. Here is the method: FIG. 9A, FIG. 9B, FIG. 9C, FIG. 9D, FIG. 9E, FIG. 9F, FIG. 9G, and FIG. 9H show Hsp27, HSp70, and Hsp90 expression in PN cells treated with VX-809 and/or cycloheximide. (A) Pkd1 null (PN) cells were treated with VX-809 (10 μM) and/or with cycloheximide (25 μM) for indicated time points before being harvested for the assay. (FIG. 9A) Western blot showing expression of Hsp27, Hsp70, and Hsp90 in VX-809-(16 h), cycloheximide-treated, or control PN cells. ((FIG. 9B. (FIG. 9C, and (FIG. 9D) Columns represent averages±standard errors of Hsp27, Hsp70, and Hsp90 expression in cells treated with VX-809 and/or cycloheximide. ((FIG. 9E) Western blot showing expression of Hsp27, Hsp70, and Hsp90 in PN cells treated with VX-809+cycloheximide or control PN cells. ((FIG. 9F, (FIG. 9G, and (FIG. 9H) Columns represent averages±standard errors of Hsp27, Hsp70, and Hsp90 expression in cells treated only with cycloheximide or in control PN cells. Data were analyzed by non-parametric t-test. The experiments were repeated 3-5 times. *P<0.05, **P<0.01;
To gain more insight into the mechanism whereby VX-809 alters Hsp protein levels, translation was inhibited by using cycloheximide (35) and the disappearance of the three Hsps was monitored. […] Hsp 90 was reduced by approximately 25%, and Hsp27 was unchanged.

For assay [3], the system named is GRP78. Briefly: Western blot of ER stress marker GRP78 in kidney tissue. It counts as in vivo, mouse. Conditions: cyst induced pkd−/− mice, VX-809 30 mg/kg BW. As for the experimental part: FIG. 11A. FIG. 11B, FIG. 11C, FIG. 11D, and FIG. 11E show expression of ER stress markers GRP78, ErO1, and GADD in Pkd1^−/− mice treated with VX-809. (FIG. 11A & FIG. 11D) Representative Western blot images of GRP78, ErO1, and GADD in lysates of kidney tissue from no cyst induced (ND), cyst induced with doxycycline (D) or cyst induced pkd−/− mice treated with VX-809 (D+VX-809) 30 mg/kg BW. (FIG. 11B, FIG. 11C and FIG. 11E) Columns represent averages±standard errors of GRP78, ErO1, and GADD153 expression. Data were analyzed by non-parametric t-test. n=4 for each treated and control groups. Black lines between lanes represent representative experiments from the same gel but loaded in different lanes. **P<0.01, ***P<0.001;
Given that VX-809 alters an ensemble of Hsps, it was evaluated whether VX-809 alters proteins associated with ER stress. To address this question, the levels of three ER stress-associated proteins were measured, 78-kDa glucose-regulated protein (GRP78), ER oxidoreductin 1 (Ero1) and DNA damage-inducible protein 3 (GADD153), also known as C/EBP homologous protein (CHOP) (37). The results are depicted in FIG. 11 show no changes in GRP78 or Ero1 in response to VX-809.

For assay [4], the system named is NHE3. Briefly: NHE3 expression in PN cells. It is filed as cell-based, mouse. Conditions: PN cells treated with VX-809 vs PN cells. As for the experimental part: FIG. 14A and FIG. 14B show NHE3 expression in PN cells treated with VX-809.
(§1) The expression and activity of […] were evaluated. Specifically, NHE3 expression was evaluated in PN cells that were treated with VX-809. […] was also studied in PN, PH, and PN cells treated with VX-809. […] Next, NHE3 activity was evaluated in PN/PH cells or PN cells treated with VX-809. NHE3 activity was increased in PN cells treated with VX-809, as compared to PN cells (FIG. 16A). NHE3 activity was higher in control PH cells than in PN cells (FIG. 16B). […] NHE3 activity was increased in both VX-809 treated PN cells and control PH cells, as compared to control PN cells (FIG. 16C).

Assay [5] concerns NHE3. Description: NHE3 activity in PN cells. It is filed as cell-based, mouse. The following applies: PN cells treated with VX-809 vs PN cells. As for the experimental part: FIG. 15A and FIG. 15B show NHE3 activity in PN and PH cells (FIG. 15A and FIG. 15B) and NHE3 activity in PN cells treated with VX-809.
FIG. 16A, FIG. 16B, and FIG. 16C show NHE activity in PN/PH cells or PN cells treated with VX-809;
as §1

Assay [6] deals with CFTR (Mus musculus, UniProt P26361). Briefly: Biotinylation of CFTR in PN cells. The following applies: VX-809 treatment vs control PN cells. Also on record: endogenous in cells; host or cells: PN (Pkd1-null mouse proximal tubule) cells. It is filed as cell-based. As for the experimental part:
FIG. 19A, FIG. 19B, FIG. 19C, and FIG. 19D show CFTR expression in PN cells treated with VX-809 (10 μM) for 16 h.
The expression of CFTR was evaluated in PN cells treated with VX-809 and control PN cells. PN cells were treated with 10 μM VX-809 for 16 h or a control.

Sequence of CFTR (P26361 whole entry): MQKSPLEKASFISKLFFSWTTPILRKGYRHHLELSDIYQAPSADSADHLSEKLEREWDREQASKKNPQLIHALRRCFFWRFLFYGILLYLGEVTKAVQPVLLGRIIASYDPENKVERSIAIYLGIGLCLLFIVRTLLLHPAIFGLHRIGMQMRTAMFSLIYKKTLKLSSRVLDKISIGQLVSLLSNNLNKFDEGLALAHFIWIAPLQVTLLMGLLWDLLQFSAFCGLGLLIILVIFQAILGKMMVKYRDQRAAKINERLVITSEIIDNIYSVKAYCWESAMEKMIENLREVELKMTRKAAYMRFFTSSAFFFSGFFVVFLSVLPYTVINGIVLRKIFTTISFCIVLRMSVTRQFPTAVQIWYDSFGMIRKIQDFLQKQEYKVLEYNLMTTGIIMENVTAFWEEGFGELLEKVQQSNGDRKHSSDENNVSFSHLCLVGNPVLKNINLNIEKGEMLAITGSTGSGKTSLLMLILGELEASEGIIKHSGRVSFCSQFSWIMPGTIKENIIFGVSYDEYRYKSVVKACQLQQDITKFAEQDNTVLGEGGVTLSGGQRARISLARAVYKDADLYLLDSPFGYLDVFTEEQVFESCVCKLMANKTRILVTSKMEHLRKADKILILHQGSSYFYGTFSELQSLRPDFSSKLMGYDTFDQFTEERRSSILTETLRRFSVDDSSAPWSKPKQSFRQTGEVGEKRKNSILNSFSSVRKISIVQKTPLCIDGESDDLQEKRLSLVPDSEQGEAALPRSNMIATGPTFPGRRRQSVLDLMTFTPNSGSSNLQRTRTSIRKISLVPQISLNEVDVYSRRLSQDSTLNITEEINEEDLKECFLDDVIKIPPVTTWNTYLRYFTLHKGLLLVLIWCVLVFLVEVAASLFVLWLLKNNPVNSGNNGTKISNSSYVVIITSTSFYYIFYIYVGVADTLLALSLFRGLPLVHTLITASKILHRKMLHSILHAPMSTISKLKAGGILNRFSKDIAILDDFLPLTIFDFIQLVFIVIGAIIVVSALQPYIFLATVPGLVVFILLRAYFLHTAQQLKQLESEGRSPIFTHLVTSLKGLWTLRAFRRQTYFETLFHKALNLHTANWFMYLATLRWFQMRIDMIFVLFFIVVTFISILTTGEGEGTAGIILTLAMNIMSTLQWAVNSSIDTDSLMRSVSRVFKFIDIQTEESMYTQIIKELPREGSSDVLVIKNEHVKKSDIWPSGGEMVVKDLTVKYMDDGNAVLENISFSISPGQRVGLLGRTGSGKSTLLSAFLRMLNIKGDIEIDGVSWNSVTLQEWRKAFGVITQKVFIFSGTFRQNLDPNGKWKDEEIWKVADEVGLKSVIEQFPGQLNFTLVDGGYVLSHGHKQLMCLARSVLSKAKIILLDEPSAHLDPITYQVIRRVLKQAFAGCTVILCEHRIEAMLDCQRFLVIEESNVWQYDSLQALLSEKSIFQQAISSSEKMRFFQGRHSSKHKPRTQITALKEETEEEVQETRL

For the substance lumacaftor [VX-809], in assay [1], the “Hsp70 expression in kidneys” value was “significantly less expression”. The “Hsp 90 reduction over the 8-h period” value in assay [2] was “approximately 25%”. The GRP78 expression entry in assay [3] is listed as “no changes”. In assay [4], the NHE3 expression result is listed as “significantly increased”. In addition, in assay [5], the NHE3 activity entry is given as “significantly increased”. For the same substance, the “biotinylation of CFTR” value in assay [6] is given as “significantly increased”.
